Source: US6416775B1, “Dry spreadable carrier for pesticides” (priority 1996, dated 2002)

Assay: Volatile materials in ventilating oven
Format: physicochemical
Settings: after 2 hours at 141° F. (=60.5° C.) in a ventilating oven
Method: The moisture content of raw material Celite 500 is 3.7 weight percent. So, the weight of raw material Celite 500 is close to the dry weight of Celite 500. According to the product specifications of Supragil MNS/90, Soprophor S/40-P, and Supragil WP, the moisture contents of these components are no higher than 2 weight percent. Also, samples of chlorpyrifos technical were tested for volatile materials in a ventilating oven. The weight loss after 2 hours at 141° F. (=60.5° C.) was only 0.6 weight percent. […] Therefore, the dry spreadable granular product as manufactured above contains approximately 2.0 weight percent chlorpyrifos.

CCOP(=S)(OCC)Oc1nc(Cl)c(Cl)cc1Cl [Chlorpyrifos]
weight loss: 0.6 weight percent
